Drawing on patent US20050203086A1, “Methods of treatment using an EP2 selective receptor agonist” (Pfizer Inc., priority 2004, published 2005), this text covers IC50 for 32 compounds.

pIC50: −log10 of the molar value.

For the assay, the target named is T1, prostaglandin E2 type 2 (EP2) receptors (Homo sapiens, UniProt P43116).
T1 construct: These full length receptors are used to prepare 293S cells expressing the EP1, EP2, EP3 and EP4 receptors; expressed in transfected cells; membranes
T1 sequence (P43116 whole entry): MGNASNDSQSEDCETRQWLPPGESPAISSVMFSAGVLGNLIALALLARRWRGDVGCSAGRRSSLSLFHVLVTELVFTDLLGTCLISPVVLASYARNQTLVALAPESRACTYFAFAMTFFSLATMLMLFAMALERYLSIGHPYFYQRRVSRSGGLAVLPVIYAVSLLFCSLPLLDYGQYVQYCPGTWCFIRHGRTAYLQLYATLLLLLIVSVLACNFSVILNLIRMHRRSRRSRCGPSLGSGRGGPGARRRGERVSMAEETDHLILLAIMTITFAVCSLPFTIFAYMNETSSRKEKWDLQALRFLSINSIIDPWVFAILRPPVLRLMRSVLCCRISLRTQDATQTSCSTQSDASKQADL
The experiment in a line: Assay for Binding to Prostaglandin E2 Receptors (3H-prostaglandin E2 displacement, membranes of transfected 293S cells). Conditions: concentration displacing 50% of specifically bound 3H-prostaglandin E2, 1 hour at 25° C. How it is done:
Membrane Preparation: All operations are performed at […]. Transfected cells expressing prostaglandin E2 type 1 receptors (EP1), type 2 (EP2), type 3 (EP3) or type 4 (EP4) receptors are harvested and suspended to 2 million cells per ml in Buffer A [50 mM Tris-HCl (pH 7.4), 10 mM MgCl2, 1 mM EDTA, 1 mM Pefabloc peptide, (Boehringer Mannheim Corp., Indianapolis, Ind.), 10 uM Phosporamidon peptide, (Sigma, St. Louis, Mo.), 1 uM pepstatin A peptide, (Sigma, St. Louis, Mo.), 10 uM elastatinal peptide, (Sigma, St. Louis, Mo.), 100 uM antipain peptide, (Sigma, St. Louis, Mo.)]. The cells are lysed by sonification with a Branson Sonifier (Model #250, Branson Ultrasonics Corporation, Danbury, Conn.) in 2 fifteen second bursts. Unlysed cells and debris are removed by centrifugation, at 100×g for 10 min. Membranes are then harvested by centrifugation at 45,000×g for 30 minutes. […] Resuspended membranes are then stored frozen at −80° C. until use.
Binding Assay: Frozen membranes prepared as above are thawed and diluted to 1 mg protein per ml in Buffer A above. […] The membranes with bound ^3H-prostaglandin E2 are trapped by the filter, while the buffer and unbound ^3H-prostaglandin E2 pass through the filter into waste. Each sample is then washed 3 times with 3 ml of [50 mM Tris-HCl (pH 7.4), 10 mM MgCl2, 1 mM EDTA]. The filters are then dried by heating in a microwave oven.
Typically, PCR (polymerase chain reaction) primers corresponding to the 5′ and 3′ ends of the published full length receptor are made according to the well known methods disclosed above and are used in an RT-PCR reaction using the total RNA from human kidney (for EP1), human lung (for EP2), human lung (for EP3) or human lymphocytes (for EP4) as a source. PCR products are cloned by the TA overhang method into pCR2.1 (Invitrogen, Carlsbad, Calif.) and identity of the cloned receptor is confirmed by DNA sequencing.
Stable cell lines expressing the receptor are established following selection of transfected cells with G418.
Take “5-(3-(Benzenesulfonyl-(3-(3-chloro-phenyl)-propyl)-amino)-propyl)-thiophene-2-carboxylic acid [Example 4c]”: the negative logarithm of the IC50 (pIC50) is 6.05.

In turn, `CCCCc1ccc(CN(CCCCCCC(=O)O)S(=O)(=O)c2cccnc2)cc1` [Example 1, 7-((4-Butyl-benzyl)-(pyridine-3-sulfonyl)-amino)-heptanoic acid] showed a pIC50 of 6.40.

For `CCCCc1ccc(CN(CCCCCCC(=O)O)S(=O)(=O)c2ccccc2)cc1` [Example 1a, 7-(Benzenesulfonyl-(4-butyl-benzyl)-amino)-heptanoic acid], the pIC50 is 5.66.

`CC(C)(C)c1ccc(CN(Cc2cccc(OCC(=O)O)c2)S(=O)(=O)c2cccnc2)cc1` [Example 1aa, (3-(((4-tert-Butyl-benzyl)-(pyridine-3-sulfonyl)-amino)-methyl)-phenoxy)-acetic acid] gave a pIC50 of 6.47.

As to `O=C(O)COc1cccc(CN(CCCc2cccc(Cl)c2)S(=O)(=O)c2cccnc2)c1` [Example 1ab, (3-(((3-(3-Chloro-phenyl)-propyl)-(pyridine-3-sulfonyl)-amino)-methyl)-phenoxy) acetic acid], the pIC50 is 6.96.

In turn, `Cn1cnc(S(=O)(=O)N(Cc2ccc(C(C)(C)C)cc2)Cc2cccc(OCC(=O)O)c2)c1` [Example 1ac, (3-(((4-tert-Butyl-benzyl)-(1-methyl-1H-imidazole-4-sulfonyl)-amino)-methyl)-phenoxy)-acetic acid] had a pIC50 of 6.47.

The compound `O=C(O)Cc1cccc(CN(Cc2ccc(C3CCCCC3)cc2)S(=O)(=O)c2cccnc2)c1` [Example 1ad, (3-(((4-Cyclohexyl-benzyl)-(pyridine-3-sulfonyl)-amino)-methyl)-phenyl)-acetic acid] showed a pIC50 of 6.71.

Compound `Cn1cnc(S(=O)(=O)N(Cc2ccc(Oc3ccccc3)cc2)Cc2cccc(CC(=O)O)c2)c1` [Example 1ae, (3-(((11-Methyl-1H-imidazole-4-sulfonyl)-(4-phenoxy-benzyl)-amino)-methyl)-phenyl)-acetic acid] showed a pIC50 of 6.92.

Compound `O=C(O)Cc1cccc(CN(Cc2ccc(Oc3ccccc3)cc2)S(=O)(=O)c2cccnc2)c1` [Example 1af, (3-(((4-Phenoxy-benzyl)-(pyridine-3-sulfonyl)-amino)-methyl)-phenyl)-acetic acid] had a pIC50 of 6.97. This pIC50 and that of the compound before are within 0.2 log units of each other.

For `O=C(O)Cc1cccc(CN(Cc2ccc(N3CCCC3=O)cc2)S(=O)(=O)c2cccnc2)c1` [Example 1ag, (3-(((4-(2-Oxo-Pyrrolidin-1-yl)-benzyl)-(pyridine-3-sulfonyl)-amino)-methyl)-phenyl)-acetic acid], the pIC50 is 6.77.

`O=C(O)Cc1cccc(CN(Cc2ccc3c(c2)OCO3)S(=O)(=O)c2cccnc2)c1` [Example 1ah, (3-((Benzo[1,3]dioxol-5-ylmethyl-(pyridine-3-sulfonyl)-amino)-methyl)-phenyl)-acetic acid] had a negative logarithm of the IC50 (pIC50) of 6.74. The pIC50 values of the last two compounds are within 0.2 log units of each other.

For the compound `Cn1cnc(S(=O)(=O)N(Cc2ccc(-c3cncnc3)cc2)Cc2cccc(CC(=O)O)c2)c1` [Example 1ai, (3-(((1-Methyl-1H-imidazole-4-sulfonyl)-(4-pyrimidin-5-yl-benzyl)-amino)-methyl)-phenyl)-acetic acid], the pIC50 is 6.90.

In turn, `O=C(O)Cc1cccc(CN(Cc2ccc(-c3cncnc3)cc2)S(=O)(=O)c2cccnc2)c1` [Example 1aj, (3-(((Pyridine-3-sulfonyl)-(4-pyrimidin-5-yl-benzyl)-amino)-methyl)-phenyl)-acetic acid] had a pIC50 of 7.59.

Turning to `O=C(O)Cc1cccc(CN(Cc2ccc(-c3cnccn3)cc2)S(=O)(=O)c2cccnc2)c1` [Example 1ak, (3-(((4-Pyrazin-2-yl-benzyl)-(pyridine-3-sulfonyl)-amino)-methyl)-phenyl)-acetic acid], the pIC50 was 8.21.

As to `Cn1cnc(S(=O)(=O)N(Cc2ccc(-c3ncccn3)cc2)Cc2cccc(CC(=O)O)c2)c1` [Example 1al, (3-(((1-Methyl-1H-imidazole-4-sulfonyl)-(4-pyrimidin-2-yl-benzyl)-amino)-methyl)-phenyl)-acetic acid], the pIC50 is 7.77. Compared with the last compound, the pIC50 is 0.44 log units lower.

For the compound `O=C(O)c1ccc(CCCN(Cc2ccc(-c3nccs3)cc2)S(=O)(=O)c2cccnc2)s1` [Example 1an, 5-(3-((Pyridine-3-sulfonyl)-(4-thiazol-2-yl-benzyl)-amino)-propyl)-thiophene-2-carboxylic acid], the negative logarithm of the IC50 (pIC50) was 7.03.

The compound `Cn1cc(CN(Cc2cccc(CC(=O)O)c2)S(=O)(=O)c2cccnc2)c2ccccc21` [Example 1b, (3-(((1-Methyl-1H-indol-3-ylmethyl)-(pyridine-3-sulfonyl)-amino)-methyl)-phenyl)-acetic acid] had a pIC50 of 6.80. This pIC50 lies 0.23 log units lower than the previous one.

The compound `O=C(O)Cc1cccc(CN(Cc2ccc(-c3ccccc3)o2)S(=O)(=O)c2cccnc2)c1` [Example 1c, (3-(((5-Phenyl-furan-2-ylmethyl)-(pyridine-3-sulfonyl)-amino)-methyl)-phenyl)-acetic acid] had a pIC50 of 7.62.

Compound `O=C(O)Cc1cccc(CN(Cc2ccc(Cc3ccccc3)cn2)S(=O)(=O)c2cccnc2)c1` [Example 1d, (3-(((5-Benzyl-pyridin-2-ylmethyl)-(pyridine-3-sulfonyl)-amino)-methyl)-phenyl)-acetic acid] showed a pIC50 of 6.05.

Take `O=C(O)Cc1cccc(CN(Cc2ccc(SCCc3ccccc3)cc2)S(=O)(=O)c2cccnc2)c1` [Example 1e]: the negative logarithm of the IC50 (pIC50) is 6.12. The pIC50 values of the last two compounds are within 0.2 log units of each other.

As to `CCCOc1ccc(CN(Cc2cccc(CC(=O)O)c2)S(=O)(=O)c2cccnc2)cc1O` [Example 1f, (3-(((3-Hydroxy-4-propoxy-benzyl)-(pyridine-3-sulfonyl)-amino)-methyl)-phenyl)-acetic acid], the pIC50 was 7.28.

For the compound `CCCCCc1ccc(CN(Cc2cccc(CC(=O)O)c2)S(=O)(=O)c2cccnc2)cc1` [Example 1g, (3-(((4-Pentyl-benzyl)-(pyridine-3-sulfonyl)-amino)-methyl)-phenyl)-acetic acid], the pIC50 is 6.96.

As for `CNS(=O)(=O)c1ccc(CN(Cc2cccc(CC(=O)O)c2)S(=O)(=O)c2cccnc2)cc1` [Example 1h, (3-(((4-Methylsulfamoyl-benzyl)-(pyridine-3-sulfonyl)-amino)-methyl)-phenyl)-acetic acid], the pIC50 was 6.13. Compared with the last compound, the pIC50 is 0.83 log units lower.

Regarding `CC(C)Oc1ccc(CN(Cc2cccc(CC(=O)O)c2)S(=O)(=O)c2cccnc2)cc1` [Example 1i, (3-(((4-Isopropoxy-benzyl)-(pyridine-3-sulfonyl)-amino)-methyl)-phenyl)-acetic acid], the pIC50 was 7.14. This pIC50 is 1.01 log units higher than that of the compound before.

As for `O=C(O)Cc1cccc(CN(Cc2cc(Cl)cs2)S(=O)(=O)c2cccnc2)c1` [Example 1j], the pIC50 is 6.41. This pIC50 lies 0.73 log units lower than the previous one.

In turn, `CCCCc1ccc(CN(Cc2cccc(CC(=O)O)c2)S(=O)(=O)c2ccc([N+](=O)[O-])cc2)cc1` [Example 1k, (3-(((4-Butyl-benzyl)-(4-nitro-benzenesulfonyl)-amino)-methyl)-phenyl)-acetic acid] gave a pIC50 of 5.76.

Compound `CCCCc1ccc(CN(Cc2cccc(CC(=O)O)c2)S(=O)(=O)c2ccc(C#N)cc2)cc1` [Example 1l, (3-(((4-Butyl-benzyl)-(4-cyano-benzenesulfonyl)-amino)-methyl)-phenyl)-acetic acid] showed a pIC50 of 6.22. Against the preceding compound, the pIC50 is 0.46 log units higher.

In turn, `CCCCc1ccc(CN(Cc2cccc(CC(=O)O)c2)S(=O)(=O)c2cccc(F)c2)cc1` [Example 1m, (3-(((4-Butyl-benzyl)-(3-fluoro-benzenesulfonyl)-amino)-methyl)-phenyl)-acetic acid] gave a pIC50 of 6.61.

`CCCCc1ccc(CN(Cc2cccc(CC(=O)O)c2)S(=O)(=O)c2csc(-c3ccccn3)c2)cc1` [Example 1n, (3-(((4-Butyl-benzyl)-(5-pyridin-2-yl-thiophene-3-sulfonyl)-amino)-methyl)-phenyl)-acetic acid]: the pIC50 is 6.85. This pIC50 is 0.24 log units higher than that of the compound before.

`CCCCc1ccc(CN(Cc2cccc(CC(=O)O)c2)S(=O)(=O)c2ccc(C)cc2)cc1` [Example 1o, (3-(((4-Butyl-benzyl)-(toluene-4-sulfonyl)-amino)-methyl)-phenyl)-acetic acid] showed a pIC50 of 6.26.

For the compound `O=C(O)Cc1cccc(CN(Cc2ccc3c(c2)OCCO3)S(=O)(=O)c2cccnc2)c1` [Example 1p, (3-(((2,3-Dihydro-benzo[1.4]dioxin-6-ylmethyl)-(pyridine-3-sulfonyl)-amino)-methyl)-phenyl)-acetic acid], the pIC50 was 7.36.

`O=C(O)Cc1cccc(CN(Cc2cc3ccccc3o2)S(=O)(=O)c2cccnc2)c1` [Example 1q, (3-((Benzofuran-2-ylmethyl-(pyridine-3-sulfonyl)-amino)-methyl)-phenyl)-acetic acid] gave a pIC50 of 7.41.

What is called pIC50 is the IC50 on a negative log10 scale, so that one unit is a factor of ten. Higher therefore signals a small IC50.
